Literature values as cited in patent US20240050950A1, “GRADIENT-BASED MICROFLUIDIC CIRCUIT, DEVICE, AND METHOD FOR PERFORMING AN ASSAY” (priority 2020, published 2024).
Where a name gives a salt, the structure may show the parent alone. Read-outs that look alike come from different tables or passages of the source. Square brackets hold non-standard residues; d marks the D form. Peptide text beside a SMILES is read from it. * marks the point of attachment. dPhe(4-NHCONH2) = NC(=O)Nc1ccc(C[C@@H](N)C(=O)O)cc1; Dihydroorotyl(S) = O=C1C[C@@H](C(=O)*)NC(=O)N1; dPhe(4-Cl) = N[C@H](Cc1ccc(Cl)cc1)C(=O)O; Phe(4-NH2) = Nc1ccc(C[C@H](N)C(=O)O)cc1; d2Nal = N[C@H](Cc1ccc2ccccc2c1)C(=O)O; Lys(iPr) = CC(C)NCCCC[C@H](N)C(=O)O; d3Pal = N[C@H](Cc1cccnc1)C(=O)O

Conditions: cited from earlier work
[1] = Table 1, antimicrobial agents/drugs
[2] = Table 3, antifungal drugs and other molecules

## Nc1ccn([C@@H]2O[C@H](CO)[C@@H](O)[C@@H]2O)c(=O)n1 [Cytarabine (Tarabine PFS), Cytarabine]
Table 2, anticancer drugs
  Molar volume: 128.4 ± 7.0 cm^3

## C=C1[C@@H](C)[C@H]2[C@H](Cc3ccccc3)NC(=O)[C@]23OC(=O)/C=C/[C@H](O)CCC[C@@H](C)C/C=C/[C@H]3[C@@H]1O [Cytochalasin B (Phomin), Cytochalasin B]
[1]
  Molar volume: 396.8 ± 5.0 cm^3

## C=C1[C@@H](C)[C@H]2[C@H](Cc3ccccc3)NC(=O)[C@]23[C@H](OC(C)=O)/C=C/[C@@](C)(O)C(=O)[C@@H](C)C/C=C/[C@H]3[C@@H]1O [Cytochalasin D (Zygosporin A, 1632828), Cytochalasin D]
[1]
  Molar volume: 410.0 ± 5.0 cm^3

## N[C@@H]1CONC1=O [D-Cycloserine]
[1]
  Molar volume: 79.8 ± 3.0 cm^3

## CC1(C)S[C@@H]2[C@H](NC(=O)[C@H](NC(=O)N3CCNC3=O)c3ccccc3)C(=O)N2[C@H]1C(=O)O [D-α-([Imidazolidin-2-on-1-yl]carbonylamino)benzylpenicillin]
[1]
  Molar volume: 296.6 ± 5.0 cm^3

## CC(C)(C)c1nc(-c2cccc(NS(=O)(=O)c3c(F)cccc3F)c2F)c(-c2ccnc(N)n2)s1 [Dabrafenib (Tafinlar), Dabrafenib]
Table 2, anticancer drugs
  Molar volume: 359.8 ± 3.0 cm^3

## COc1cc2ncnc(Nc3ccc(F)c(Cl)c3)c2cc1NC(=O)/C=C/CN1CCCCC1 [Dacomitinib (Vizimpro), Dacomitinib]
Table 2, anticancer drugs
  Molar volume: 349.4 ± 3.0 cm^3

## CCCCCCCCCC(=O)N[C@@H](Cc1c[nH]c2ccccc12)C(=O)N[C@H](CC(N)=O)C(=O)N[C@@H](CC(=O)O)C(=O)N[C@@H]1C(=O)NCC(=O)N[C@@H](CCCN)C(=O)N[C@@H](CC(=O)O)C(=O)N[C@H](C)C(=O)N[C@@H](CC(=O)O)C(=O)NCC(=O)N[C@H](CO)C(=O)N[C@@H]([C@H](C)CC(=O)O)C(=O)N[C@@H](CC(=O)c2ccccc2N)C(=O)O[C@@H]1C [Daptomycin]
[1]
  Molar volume: 1110.7 ± 5.0 cm^3

## COc1cccc2c1C(=O)c1c(O)c3c(c(O)c1C2=O)C[C@@](O)(C(C)=O)C[C@@H]3O[C@H]1C[C@H](N)[C@H](O)[C@H](C)O1 [Daunorubicin (Daunomycin), Daunorubicin]
[1]
  Molar volume: 339.4 ± 5.0 cm^3

## CC(=O)N[C@H](Cc1ccc2ccccc2c1)C(=O)N[C@H](Cc1ccc(Cl)cc1)C(=O)N[C@H](Cc1cccnc1)C(=O)N[C@@H](CO)C(=O)N[C@@H](Cc1ccc(NC(=O)[C@@H]2CC(=O)NC(=O)N2)cc1)C(=O)N[C@H](Cc1ccc(NC(N)=O)cc1)C(=O)N[C@@H](CC(C)C)C(=O)N[C@@H](CCCCNC(C)C)C(=O)N1CCC[C@H]1C(=O)N[C@H](C)C(N)=O [Degarelix] (Ac-[d2Nal][dPhe(4-Cl)][d3Pal]S[Phe(4-NH2)](Dihydroorotyl(S))[dPhe(4-NHCONH2)]L[Lys(iPr)]P[dA]-NH2)
Table 2, anticancer drugs
  Molar volume: 1231.3 ± 3.0 cm^3

## CN(C)[C@@H]1C(O)=C(C(N)=O)C(=O)[C@@]2(O)C(O)=C3C(=O)c4c(O)ccc(Cl)c4[C@@H](O)[C@H]3C[C@@H]12 [Demeclocycline]
[1]
  Molar volume: 265.1 ± 5.0 cm^3

## C[C@@H](CN1CC(=O)NC(=O)C1)N1CC(=O)NC(=O)C1 [Dexrazoxane Hydrochloride]
Table 2, anticancer drugs
  Molar volume: 201.2 ± 3.0 cm^3

## Oc1ccc(Cl)cc1Cc1cc(Cl)ccc1O [Dichlorophene]
[1]
  Molar volume: 189.5 ± 3.0 cm^3

## Cc1onc(-c2c(Cl)cccc2Cl)c1C(=O)N[C@@H]1C(=O)N2[C@@H]1SC(C)(C)[C@@H]2C(=O)O [Dicloxacillin]
[1]
  Molar volume: 290.0 ± 5.0 cm^3

## CN1CCN(c2cc3c(cc2F)c(=O)c(C(=O)O)cn3-c2ccc(F)cc2)CC1 [Difloxacin]
[1]
  Molar volume: 283.2 ± 3.0 cm^3

## CN[C@@H]1[C@H](O[C@H]2[C@H](O[C@H]3[C@H](O)[C@@H](O)[C@H](NC(=N)N)[C@@H](O)[C@@H]3NC(=N)N)O[C@@H](C)[C@]2(O)CO)O[C@@H](CO)[C@H](O)[C@H]1O [Dihydrostreptomycin]
[1]
  Molar volume: 293.4 ± 7.0 cm^3

## Cc1ncc([N+](=O)[O-])n1C [Dimetridazole]
[1]
  Molar volume: 103.4 ± 7.0 cm^3

## CC(=O)O[C@@]12CO[C@@H]1C[C@H](O)[C@@]1(C)C(=O)[C@H](O)C3=C(C)[C@@H](OC(=O)[C@H](O)[C@@H](NC(=O)OC(C)(C)C)c4ccccc4)C[C@@](O)([C@@H](OC(=O)c4ccccc4)[C@H]21)C3(C)C [Docetaxel (Taxotere), Docetaxel]
Table 2, anticancer drugs
  Molar volume: 585.7 ± 5.0 cm^3

## COc1cccc2c1C(=O)c1c(O)c3c(c(O)c1C2=O)C[C@@](O)(C(=O)CO)C[C@@H]3O[C@H]1C[C@H](N)[C@H](O)[C@H](C)O1 [Doxorubicin]
[1]
  Molar volume: 336.6 ± 5.0 cm^3
Table 2, anticancer drugs
  Molar volume: 336.6 ± 5.0 cm^3

## CC(C)(O)CNc1nc(Nc2ccnc(C(F)(F)F)c2)nc(-c2cccc(C(F)(F)F)n2)n1 [Enasidenib Mesylate]
Table 2, anticancer drugs
  Molar volume: 320.4 ± 3.0 cm^3

## CCN1CCN(c2cc3c(cc2F)c(=O)c(C(=O)O)cn3C2CC2)CC1 [Enrofloxacin (Baytril), Enrofloxacin]
[1]
  Molar volume: 259.3 ± 3.0 cm^3

## CNC(=O)c1ccc(N2C(=S)N(c3ccc(C#N)c(C(F)(F)F)c3)C(=O)C2(C)C)cc1F [Enzalutamide (Xtandi), Enzalutamide]
Table 2, anticancer drugs
  Molar volume: 310.0 ± 5.0 cm^3

## C=C1C[C@@H]2CC[C@@]34C[C@H]5O[C@H]6[C@@H](O3)[C@H]3O[C@H](CC[C@@H]3O[C@H]6[C@H]5O4)CC(=O)C[C@@H]3[C@@H](OC)[C@@H](C[C@H](O)CN)O[C@H]3C[C@H]3O[C@@H](CC[C@@H]1O2)C[C@@H](C)C3=C [Eribulin Mesylate]
Table 2, anticancer drugs
  Molar volume: 563.2 ± 5.0 cm^3

## C#Cc1cccc(Nc2ncnc3cc(OCCOC)c(OCCOC)cc23)c1 [Erlotinib Hydrochloride (Tarceva), Erlotinib Hydrochloride]
Table 2, anticancer drugs
  Molar volume: 315.4 ± 5.0 cm^3

## CC[C@@H](CO)NCCN[C@@H](CC)CO [Ethambutol ((+)-S,S-Ethambutol), Ethambutol]
[1]
  Molar volume: 207.0 ± 3.0 cm^3

## COc1cc([C@@H]2c3cc4c(cc3[C@@H](O[C@@H]3O[C@@H]5CO[C@@H](C)O[C@H]5[C@H](O)[C@H]3O)[C@H]3COC(=O)[C@H]23)OCO4)cc(OC)c1OP(=O)(O)O [Etopophos (Etoposide Phosphate), Etoposide Phosphate]
Table 2, anticancer drugs
  Molar volume: 406.7 ± 5.0 cm^3

## COc1cc([C@@H]2c3cc4c(cc3[C@@H](O[C@@H]3O[C@@H]5CO[C@@H](C)O[C@H]5[C@H](O)[C@H]3O)[C@H]3COC(=O)[C@H]23)OCO4)cc(OC)c1O [Etoposide]
[1]
  Molar volume: 378.5 ± 5.0 cm^3

## CN(C)CCOc1ccc(/C(=C(/CCCl)c2ccccc2)c2ccccc2)cc1 [Fareston (Toremifene), Toremifene]
Table 2, anticancer drugs
  Molar volume: 367.6 ± 3.0 cm^3

## C[C@]12CC[C@@H]3c4ccc(O)cc4C[C@@H](CCCCCCCCC[S+]([O-])CCCC(F)(F)C(F)(F)F)[C@H]3[C@@H]1CC[C@@H]2O (stereo partly shown) [Faslodex (Fulvestrant), Fulvestrant]
Table 2, anticancer drugs
  Molar volume: 505.1 ± 3.0 cm^3

## N#Cc1ccc(C(c2ccc(C#N)cc2)n2cncn2)cc1 [Femara (Letrozole), Letrozole]
Table 2, anticancer drugs
  Molar volume: 234.5 ± 7.0 cm^3

## Cc1ccc(C(=O)N2CCN(c3ccc([N+](=O)[O-])cc3)CC2)cc1Cl [Filastatin]
[2]
  Molar volume: 269.8 ± 3.0 cm^3

## CCCCC[C@@H](O)[C@H]1C(=O)O[C@H](C)[C@@H](O)/C=C/C=C/C=C/C=C/C=C(\C)[C@@H](O)C[C@H](O)C[C@H](O)C[C@H](O)C[C@H](O)C[C@H](O)C[C@@H]1O [Filipin]
[2]
  Molar volume: 563.7 ± 3.0 cm^3

## CS(=O)(=O)c1ccc([C@@H](O)[C@@H](CF)NC(=O)C(Cl)Cl)cc1 [Florfenicol (Aquafen, Nuflor), Florfenicol]
[1]
  Molar volume: 246.7 ± 3.0 cm^3

## COC(=O)Nc1nc2cc(C(=O)c3ccc(F)cc3)ccc2[nH]1 [Flubendazol (Flumoxanal), Flubendazol]
[1]
  Molar volume: 216.8 ± 3.0 cm^3

## OC(Cn1cncn1)(Cn1cncn1)c1ccc(F)cc1F [Fluconazole]
[1]
  Molar volume: 205.2 ± 7.0 cm^3
[2]
  Molar volume: 205.2 cm^3

## CC(C(=O)O)c1ccc(-c2ccccc2)c(F)c1 (stereo not shown) [Flurbiprofen]
[1]
  Molar volume: 203.6 ± 3.0 cm^3

## C#CCC(Cc1cnc2nc(N)nc(N)c2n1)c1ccc(C(=O)N[C@@H](CCC(=O)O)C(=O)O)cc1 (stereo partly shown) [Folotyn (Pralatrexate), Pralatrexate]
Table 2, anticancer drugs
  Molar volume: 324.5 ± 3.0 cm^3

## Nc1ncnc2c([C@@H]3O[C@H](CO)[C@@H](O)[C@H]3O)[nH]nc12 [Formycin A]
[1]
  Molar volume: 128.1 ± 7.0 cm^3

## CO[C@@H]1[C@H](OC(=O)/C=C/C=C/C=C/C=C/C(=O)O)CC[C@]2(CO2)[C@H]1[C@@]1(C)O[C@@H]1CC=C(C)C [Fumagillin]
[1]
  Molar volume: 383.2 ± 5.0 cm^3

## CCCCc1ccc(C(=O)O)nc1 [Fusaric acid (5-Butylpicolinic acid), 5-Butylpicolinic acid]
[1]
  Molar volume: 161.0 ± 3.0 cm^3

## Nc1nc(=O)c2c([nH]1)NCC(CNc1ccc(C(=O)N[C@@H](CCC(=O)[O-])C(=O)[O-])cc1)N2C=O.[Ca+2] (stereo partly shown) [Fusilev (Leucovorin Calcium), Leucovorin Calcium]
Table 2, anticancer drugs
  Molar volume: 280.7 ± 7.0 cm^3

## CN[C@@H]1[C@@H](O)[C@@H](O[C@@H]2[C@@H](O)[C@H](O[C@H]3O[C@H]([C@@H](C)O)[C@@H](O)[C@H](O)[C@H]3N)[C@@H](N)C[C@H]2N)OC[C@]1(C)O [G 418]
[1]
  Molar volume: 336.3 ± 5.0 cm^3

## O=C[C@H](O)[C@@H](O)[C@@H](O)[C@H](O)CO [Galactose]
[2]
  Molar volume: 104.0 cm^3

## Nc1nc(O)c2ncn(COC(CO)CO)c2n1 [Ganciclovir]
[1]
  Molar volume: 140.5 ± 7.0 cm^3

## COc1c(N2CCNC(C)C2)c(F)cc2c(=O)c(C(=O)O)cn(C3CC3)c12 (stereo not shown) [Gatifloxacin]
[1]
  Molar volume: 270.7 ± 3.0 cm^3

## COc1cc2ncnc(Nc3ccc(F)c(Cl)c3)c2cc1OCCCN1CCOCC1 [Gefitinib]
Table 2, anticancer drugs
  Molar volume: 337.7 ± 3.0 cm^3

## Nc1ccn([C@@H]2O[C@H](CO)[C@@H](O)C2(F)F)c(=O)n1 [Gemcitabine Hydrochloride]
Table 2, anticancer drugs
  Molar volume: 142.3 ± 7.0 cm^3

## CN(C)c1ccc(C(=C2C=CC(=[N+](C)C)C=C2)c2ccc(N(C)C)cc2)cc1 [Gentian Violet]
[2]
  Molar volume: 340.9 ± 5.0 cm^3

## CN(C)C/C=C/C(=O)Nc1cc2c(Nc3ccc(F)c(Cl)c3)ncnc2cc1O[C@H]1CCOC1 [Gilotrif (Afatinib Dimaleate), Afatinib Dimaleate]
Table 2, anticancer drugs
  Molar volume: 351.9 ± 3.0 cm^3

## CN1C(=O)[C@]23CC4=CC=C[C@H](O)[C@H]4N2C(=O)[C@@]1(CO)SS3 [Gliotoxin]
[1]
  Molar volume: 186.5 ± 5.0 cm^3
